From PubChem BioAssay (NCI)
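Method: 48-hour compound exposure of cells in 96-well plates, five concentrations, linear interpolation of endpoints. GI50 marks 50% less growth. Definition used: TGI = concentration required for complete inhibition of growth.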

Legend:
Test in all cases: inhibition of tumour cell growth, NCI panel, 48 h
[1] = tested on: SK-MEL-5 melanoma
[2] = tested on: SK-MEL-28 melanoma
[3] = tested on: U251 CNS
[4] = tested on: SF-295 CNS
[5] = tested on: RXF 393 renal
[6] = tested on: HL-60(TB) leukemia
[7] = tested on: HCT-116 colon
[8] = tested on: NCI-H460 lung
[9] = tested on: SK-OV-3 ovarian
[10] = tested on: HOP-92 NSCLC

SMILES | GI50 [1] [µM] | TGI [1] [µM] | GI50 [2] [µM] | TGI [2] [µM] | GI50 [3] [µM] | TGI [3] [µM] | GI50 [4] [µM] | TGI [4] [µM] | GI50 [5] [µM] | TGI [5] [µM] | GI50 [6] [µM] | TGI [6] [µM] | GI50 [7] [µM] | TGI [7] [µM] | GI50 [8] [µM] | TGI [8] [µM] | GI50 [9] [µM] | TGI [9] [µM] | TGI [10] [µM] | GI50 [10] [µM]
COc1ccc(C(=O)COc2cccc(/C=C3\CSc4ccc(C)cc4C3=O)c2)cc1 | 10.9 | > 100 | 17.4 | 45.5 | 7.38 | > 100 | 15.8 | > 100 | 19.9 | 49 | 5.44 | 43.3 | 1.91 | 5.71 | > 100 | > 100 | 74.2 | > 100 |  | 
COc1cccc2[nH]c(-c3ccccn3)nc12 |  | > 100 |  | > 100 |  | > 100 |  | > 100 |  | > 100 |  |  |  | > 100 |  | > 100 |  | > 100 | > 100 | 
CN(C)c1ccc(/C=N\N2C(=O)c3ccccc3C2=O)cc1 |  | > 100 |  | > 100 |  |  |  | > 100 |  | > 100 |  | > 100 |  | > 100 |  | > 100 |  |  | > 100 | 
O=[N+]([O-])c1ccc(Sc2c3ccccc3nc3ccccc23)nc1 |  | 30.7 |  | 15.6 |  | 46.3 |  | 51.1 |  | 7.08 |  |  |  | 4.22 |  | 42.6 |  | 17.7 | 6.79 | 
COc1ccc(-c2ccc(/C=N/n3c(C)nn(CN4CCN(C)CC4)c3=S)o2)c([N+](=O)[O-])c1 |  |  | 50 | > 100 |  |  | 18.3 | 48.2 | 30.2 | > 100 | 14.9 | 33.3 | 21.7 | 57.8 | 29.3 | > 100 | 45 | > 100 |  | 
O=C1C2c3[nH]c4ccccc4c3[C@@H]3CCCCC3C2C(=O)N1c1ccccc1 (stereo partly drawn) |  | 32.1 |  | 33 |  | 28 |  | 43.2 |  | 32.7 |  | 47.5 |  |  |  | 31.9 |  | 72.5 |  | 
c1ccc(COCC2OC3c4ccccc4COC3C2OCc2ccccc2)cc1 (stereo not drawn) |  | > 100 |  | > 100 |  | > 100 |  | > 100 |  | > 100 |  |  |  | > 100 |  | > 100 |  | > 100 | 87.1 | 
COc1ccc(CNc2nc3c(NC(C)=O)cc(C(F)(F)F)cc3nc2-c2ccccc2)cc1OC |  | > 100 |  | > 100 |  | > 100 |  | > 100 |  |  |  | > 100 |  | > 100 |  | > 100 |  | > 100 |  | 
N#Cc1ccc(C(c2ccc(C#N)cc2)n2cncn2)cc1 | 3.33 | > 5000 |  | > 5000 | 2850 | > 5000 | 182 | > 5000 | 18.3 |  | > 5000 | > 5000 |  |  | > 5000 | > 5000 | > 5000 | > 5000 |  | 
Nc1nnc(Cn2c(-c3ccccc3)nc3ccc(Br)cc3c2=O)s1 | 26.8 | 86.2 | > 100 | > 100 | 38.4 | > 100 | 26.2 | > 100 |  |  |  |  | 13.6 | 50.3 | > 100 | > 100 | > 100 | > 100 | > 100 | 10.8
